# According to patent publication US11872262B2, “Means and methods for treating bacterial infections” (VIB VZW, priority 2017, dated 2024):
# Residues, ends and D or L forms follow the SMILES beside them.
# Assays:
# [1] = Solubility of peptide after ultracentrifugation; type: physicochemical; conditions: 30 min after dissolving
# Description: FIG. 1: Activity, cytotoxicity and aggregation of antibacterial aggregating peptides. (A) Time-killing curve of selected peptides against E. coli strain O157 treated at MIC concentration (average and s.d. of 3 replicates). (B, C, D) Transmission electron microcopy (TEM) of cross-sections of E. coli O157 embedded in resin. B is mock treated, C is P2- and D is P105-treated E. coli O157 (2 h). […] (F) Concentration-dependent hemolysis of human erythrocytes by selected peptides (average and s.d. of 3 replicates). (G) Cytoxicity of Colpeptin1 to human HeLa cells measured by CellTiter Blue assay (average and s.d. of 3 replicates) and (H) by LDH release assay (average and s.d. of 3 replicates). […] Data are from a single experiment that was replicated 3 times (J) Histogram of the size distribution of particles calculated from the DLS data recorded of freshly dissolved colpeptin1 using a linear polymer as particle model. […] (M) Fluorescence intensity of the amyloid-specific dye pFTAA added to preparation of colpeptin1, normalised to the intensity observed with amyloid fibrils of the Alzheimer beta-peptide at the same concentration in monomeric units (average and s.d. of 3 replicates). […] (0) Aggregation kinetics of Colpeptin1 monitored by pFTAA fluorescence in the presence of 1 mM hexaphosphate (average and s.d. of 4 replicates). […]
# In vivo toxicity test = assay: In vivo toxicity test; design: species or system Swiss mice
# Description: The procedures used in the assays were approved by the local Animal Ethical Committee and conform to international standards of animal welfare (Approval P067/2015 of the Ethical Committee of KU Leuven). […] Briefly, 5-6 week-old Swiss females were divided into […] (6 animals/group) and administered 30 mg/kg of Colpeptin1 (group A) or vehicle (physiological water pH 7.5) (group b) once a day for 18 days via IP injection. During the treatment period the clinical, physiological and behavioral parameters including body weight, food and water consumption, body condition score, home cage activity and locomotion were constantly monitored and recorded.
# Three days after the last administration animals were anesthetized and blood was collected using a standard retro-orbital puncture from each animal. Next, the mice sacrificed and underwent complete necropsy with gross examination and organ weights. The organs (Heart, Liver, Spleen, kidney, bone marrow, Brain, Lung) were sampled and immersion fixed in 4% paraformaldehyde. Formalin-fixed tissues after dehydration were routinely processed and embedded in paraffin blocks for histopathological examination. 5 μm thick sections taken from these blocks (Thermo Scientific Microm HM355S microtome) were then stained with Hematoxylin and Eosin (Leica ST5010 Autostainer XL) and evaluated under a Leica DM 2500 light microscope by a board-certified veterinary pathologist. Hematology examination was performed using an automate high-resolution flow cytometer, Abbott Cell-Dyn 3700.
# HeLa cells = assay: In vitro mammalian cytotoxicity (LDH release, CellTiter Blue); type: cell-based, human
# Description: Mammalian cytotoxicity was measured using the LDH release (Roche, Mannheim, Germany) and CellTiter Blue (Promega) methods. Briefly, HeLa cells (obtained from Bart De Strooper lab, tested to be mycoplasma free) were seeded in 96-well round bottom plates at a concentration of 3×10^5 cells/mL in Dulbecco's Modified Eagle's Medium and treated by different concentrations of peptides. Cells treated with 1% Triton™ X-100 and vehicle were considered as positive and negative controls, respectively. Micro-plates were incubated at 37° C., 5% CO2 and 90% humidity for 4 hours. The micro-plate was centrifuged at 1350 rpm for 10 minutes. 100 μL of supernatant was transferred into clear 96-well flat bottom microplates. In order to determine LDH activity in the supernatants, 100 μl reaction mix (catalyst and dye solution) were added to each well and incubated for 30 min at RT in the dark and the LDH reaction was stopped by adding 100 ul of the Stop solution. The absorbances of the samples were measured at 490 nm. The cell viability was calculated using the formula: (exp. value−negative control value)/(positive control value−negative control value)*100. The amount of absorbance is proportional to the number of living cells and corresponds to the cells' metabolic activity.
# [2] = mice, 30 mg/kg, 18 consecutive days injection
# [3] = mice, 18 consecutive days of injection, Mean ± SD
smiles,measurement,setting,value
CC(C)C[C@H](NC(=O)CNC(=O)[C@H](CCCNC(=N)N)NC(=O)[C@@H]1CCCN1C(=O)[C@H](CCCNC(=N)N)NC(=O)[C@H](CCCNC(=N)N)NC(=O)[C@@H](NC(=O)[C@H](CC(C)C)NC(=O)[C@H](C)NC(=O)[C@H](CC(C)C)NC(=O)CNC(=O)[C@H](CC(C)C)NC(=O)CNC(=O)[C@@H](N)CCCNC(=N)N)C(C)C)C(=O)NCC(=O)N[C@@H](CC(C)C)C(=O)N[C@@H](C)C(=O)N[C@@H](CC(C)C)C(=O)N[C@H](C(=O)N[C@@H](CCCNC(=N)N)C(=O)N[C@@H](CCCNC(=N)N)C(=O)O)C(C)C [Peptide P2] (H-RGLGLALVRRPRGLGLALVRR-OH),peptide remaining in solution,[1],less than 60%
same,adverse effects on repeated dosing,"In vivo toxicity test; 6 mice, daily injections at the maximum tolerated dose for 18 days",without any apparent adverse effects
same,"acute adverse effects, dose escalation","In vivo toxicity test; Swiss mice, intraperitoneal administration of up to 30 mg/kg",no acute adverse effects
same,survey of the major organs,In vivo toxicity test; after 18 days dosing and 3 days recovery,no major morphological signs of toxicity
same,Organs weights: Brain,In vivo toxicity test; [2],0.56 ± 0.02 gr
same,Organs weights: Heart,In vivo toxicity test; [2],0.20 ± 0.02 gr
same,Organs weights: Kidneys,In vivo toxicity test; [2],0.58 ± 0.01 gr
same,Organs weights: Liver,In vivo toxicity test; [2],1.90 ± 0.11 gr
same,Organs weights: Spleen,In vivo toxicity test; [2],0.12 ± 0.01 gr
same,"BASO, Basophil absolute count",In vivo toxicity test; [3],0.24 ± 0.02
same,"EOS, Eosinophil absolute count",In vivo toxicity test; [3],0.14 ± 0.06
same,"HCT, Hematocrit",In vivo toxicity test; [3],98.87 ± 3.7
same,"HGB, Hemoglobin concentration",In vivo toxicity test; [3],17.8 ± 0.45
same,"LYM, Lymphocyte absolute count",In vivo toxicity test; [3],5.32 ± 0.52
same,"MCH, Mean Corpuscular Hemoglobin",In vivo toxicity test; [3],48.2 ± 0.34
same,"MCHC, Mean Corpuscular Hemoglobin Concentration",In vivo toxicity test; [3],53.7 ± 0.42
same,"MCV, Mean Corpuscular Volume",In vivo toxicity test; [3],273 ± 1.32
same,"MONO, Monocyte absolute count",In vivo toxicity test; [3],0.15 ± 0.05
same,"MPV, Mean Platelet Volume",In vivo toxicity test; [3],16.36 ± 0.2
same,"NEU, Neutrophil absolute count",In vivo toxicity test; [3],0.80 ± 0.06
same,"PCT, Plateletcrit",In vivo toxicity test; [3],0.88 ± 0.05
same,"PDW, Platelet Distribution Width",In vivo toxicity test; [3],49.9 ± 0.43
same,"PLT, Platelet or Thrombocyte count",In vivo toxicity test; [3],1595 ± 50.7
same,"RBC, Red Blood Cell or Erythrocyte count",In vivo toxicity test; [3],10.9 ± 0.46
same,"WBC, White Blood Cell or Leukocyte count",In vivo toxicity test; [3],6.89 ± 0.42
same,MTD,"In vivo toxicity test; mouse, in vivo, ip, Swiss mice, intraperitoneal, read-out: safe concentration from escalation experiment",30 mg/kg
same,toxicity towards mammalian cells,HeLa cells,little or no toxicity towards mammalian cells
